The source of these data is patent US9902696B2, “1,4-substituted piperidine derivatives” (Cephalon, Inc., priority 2015, dated 2018).

Molecules are shown by their SMILES. pIC50: −log10 of the molar value. Counter-ions that a name gives are not always drawn.

The first data set deals with T1, recombinant human baculovirus-expressed GST-tagged FASN (Homo sapiens, UniProt P49327).
T1 construct: GST
T1 sequence (P49327 whole entry): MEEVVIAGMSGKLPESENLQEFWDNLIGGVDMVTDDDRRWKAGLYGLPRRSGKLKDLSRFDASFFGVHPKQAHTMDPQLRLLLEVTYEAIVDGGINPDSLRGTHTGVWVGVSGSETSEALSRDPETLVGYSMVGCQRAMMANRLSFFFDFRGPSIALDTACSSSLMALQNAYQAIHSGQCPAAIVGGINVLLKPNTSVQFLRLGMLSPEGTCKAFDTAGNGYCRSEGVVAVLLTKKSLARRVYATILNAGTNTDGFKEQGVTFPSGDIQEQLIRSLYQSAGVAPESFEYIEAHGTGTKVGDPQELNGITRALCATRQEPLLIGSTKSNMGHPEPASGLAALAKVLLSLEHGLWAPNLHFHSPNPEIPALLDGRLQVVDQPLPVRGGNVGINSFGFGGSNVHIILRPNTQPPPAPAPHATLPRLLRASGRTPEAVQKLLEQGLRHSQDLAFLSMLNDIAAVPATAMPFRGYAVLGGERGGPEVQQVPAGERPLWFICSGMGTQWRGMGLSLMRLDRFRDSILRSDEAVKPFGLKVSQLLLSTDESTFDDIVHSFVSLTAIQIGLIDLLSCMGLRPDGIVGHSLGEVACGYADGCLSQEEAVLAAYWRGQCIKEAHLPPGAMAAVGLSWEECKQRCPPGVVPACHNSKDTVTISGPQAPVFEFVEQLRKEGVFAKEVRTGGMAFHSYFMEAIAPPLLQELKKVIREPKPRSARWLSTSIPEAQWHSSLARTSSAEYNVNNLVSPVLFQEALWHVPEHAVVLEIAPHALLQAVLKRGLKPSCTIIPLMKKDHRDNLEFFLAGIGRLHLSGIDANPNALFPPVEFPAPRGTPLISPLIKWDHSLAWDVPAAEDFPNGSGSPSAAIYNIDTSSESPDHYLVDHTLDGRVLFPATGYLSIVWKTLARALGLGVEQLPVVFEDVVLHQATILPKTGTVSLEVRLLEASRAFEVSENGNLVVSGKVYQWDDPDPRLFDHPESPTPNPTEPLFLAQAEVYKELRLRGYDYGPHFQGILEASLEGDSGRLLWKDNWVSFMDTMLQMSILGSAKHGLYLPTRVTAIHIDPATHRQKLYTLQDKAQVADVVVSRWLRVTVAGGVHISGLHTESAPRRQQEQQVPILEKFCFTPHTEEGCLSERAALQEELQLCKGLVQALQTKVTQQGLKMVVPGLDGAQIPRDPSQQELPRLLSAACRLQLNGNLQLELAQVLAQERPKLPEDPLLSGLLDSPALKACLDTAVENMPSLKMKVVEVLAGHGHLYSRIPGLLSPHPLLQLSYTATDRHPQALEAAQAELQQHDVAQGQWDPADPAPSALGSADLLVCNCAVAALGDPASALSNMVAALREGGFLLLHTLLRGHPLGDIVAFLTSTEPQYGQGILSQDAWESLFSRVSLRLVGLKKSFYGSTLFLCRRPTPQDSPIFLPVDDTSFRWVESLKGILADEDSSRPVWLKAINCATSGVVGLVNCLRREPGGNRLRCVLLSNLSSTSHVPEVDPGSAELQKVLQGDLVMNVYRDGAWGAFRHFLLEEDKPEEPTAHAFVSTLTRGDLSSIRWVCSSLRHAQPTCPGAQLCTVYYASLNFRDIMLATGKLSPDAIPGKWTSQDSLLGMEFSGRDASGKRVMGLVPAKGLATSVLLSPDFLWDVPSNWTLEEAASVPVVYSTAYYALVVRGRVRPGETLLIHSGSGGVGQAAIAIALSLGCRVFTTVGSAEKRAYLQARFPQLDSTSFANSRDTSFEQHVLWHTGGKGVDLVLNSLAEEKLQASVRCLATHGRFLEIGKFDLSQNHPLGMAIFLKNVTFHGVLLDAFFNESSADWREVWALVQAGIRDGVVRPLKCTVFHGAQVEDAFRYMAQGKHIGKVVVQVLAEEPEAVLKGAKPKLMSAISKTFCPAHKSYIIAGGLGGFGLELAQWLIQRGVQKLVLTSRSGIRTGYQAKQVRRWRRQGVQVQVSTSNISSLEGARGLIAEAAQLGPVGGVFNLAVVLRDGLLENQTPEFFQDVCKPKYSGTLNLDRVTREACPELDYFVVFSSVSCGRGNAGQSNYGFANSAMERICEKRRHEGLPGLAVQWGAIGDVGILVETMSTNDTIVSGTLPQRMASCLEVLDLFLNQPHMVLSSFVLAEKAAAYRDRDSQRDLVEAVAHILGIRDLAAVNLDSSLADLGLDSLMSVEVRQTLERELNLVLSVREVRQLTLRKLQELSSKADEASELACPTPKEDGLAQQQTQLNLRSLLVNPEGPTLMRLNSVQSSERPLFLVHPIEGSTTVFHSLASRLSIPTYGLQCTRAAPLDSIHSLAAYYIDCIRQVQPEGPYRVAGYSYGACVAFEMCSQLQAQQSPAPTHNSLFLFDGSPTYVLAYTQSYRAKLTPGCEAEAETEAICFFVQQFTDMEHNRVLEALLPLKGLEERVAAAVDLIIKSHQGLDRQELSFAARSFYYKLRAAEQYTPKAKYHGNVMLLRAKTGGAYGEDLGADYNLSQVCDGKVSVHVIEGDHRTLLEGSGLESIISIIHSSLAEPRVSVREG
Description: FASN enzyme activity assay, fluorescence-based detection of CoA with CPM. The data set is classed as biochemical. Conditions: 5 nM FASN, 150 μM NADPH, 10 μM acetyl-CoA, 25 μM malonyl-CoA, 90 minutes incubation; read-out: IC50 data for Additional Compounds of Formulae I-V(a): Activity. A digest of the protocol: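 Human GST-tagged FASN, baculovirus-expressed (5 nM), in 50 mM HEPES pH 7.5 with 150 μM NADPH, 10 μM acetyl-CoA, 25 μM malonyl-CoA, 0.5% DMSO; malonyl-CoA-started, 90 min. Released CoA detected with CPM (50 μM dilution), 30 min, fluorescence ex 390/em 530. IC50 from variable-slope sigmoidal fit of % inhibition versus log concentration.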
The pIC50 is the negative decadic logarithm of the IC50, by convention in mol/L. On to `Cc1c(-c2ccc(OC3CCN(C(=O)N(C)C)CC3)cc2)ccc2nccn12` [Example 599, N,N-Dimethyl-4-[4-(5-methylimidazo[1,2-a]pyridin-6-yl)phenoxy]piperidine-1-carboxamide], for which the pIC50 is 5.00 to 6.00. On the same count and under the same terms, with `Cc1c(-c2ccc(OC3CCN(C(=O)NOC(C)C)CC3)cc2)ccc2nccn12` [Example 600, N-Isopropoxy-4-[4-(5-methylimidazo[1,2-a]pyridin-6-yl)phenoxy]piperidine-1-carboxamide] the figure was 6.00 to 7.00; with `Cc1c(-c2ccc(OC3CCN(C(=O)NOCC(C)C)CC3)cc2)ccc2nccn12` [Example 601, N-Isobutoxy-4-[4-(5-methylimidazo[1,2-a]pyridin-6-yl)phenoxy]piperidine-1-carboxamide], 7.00 to 9.00; with `Cc1c(-c2ccc(OC3CCN(C(=O)OCC(C)C)CC3)cc2)ccc2nccn12` [Example 602, Isobutyl 4-[4-(5-methylimidazo[1,2-a]pyridin-6-yl)phenoxy]piperidine-1-carboxylate], 5.00 to 6.00. As for `Cc1c(-c2ccc(OC3CCN(C(=O)NC(C)C)CC3)cc2)ccc2nccn12` [Example 603, N-Isopropyl-4-[4-(5-methylimidazo[1,2-a]pyridin-6-yl)phenoxy]piperidine-1-carboxamide], the pIC50 is 5.00 to 6.00.

Regarding `Cc1c(-c2ccc(OC3CCN(C(=O)Nc4cnn(C)c4)CC3)cc2)ccc2nccn12` [Example 604, 4-[4-(5-Methylimidazo[1,2-a]pyridin-6-yl)phenoxy]-N-(1-methylpyrazol-4-yl)piperidine-1-carboxamide], the pIC50 was 5.00 to 6.00. The same measure, in the same setting: with `Cc1c(-c2ccc(OC3CCN(C(=O)OC(C)(C)C)CC3)cc2)ccc2nccn12` [Example 605, tert-Butyl 4-[4-(5-methylimidazo[1,2-a]pyridin-6-yl)phenoxy]piperidine-1-carboxylate] the figure was 5.00 to 6.00; with `Cc1c(-c2ccc(OC3CCN(C(=O)NCC(F)(F)F)CC3)cc2)ccc2nccn12` [Example 606, 4-[4-(5-Methylimidazo[1,2-a]pyridin-6-yl)phenoxy]-N-(2,2,2-trifluoro-ethyl)piperidine-1-carboxamide], 5.00 to 6.00. On the same count and under the same terms, with `CCCONC(=O)N1CCC(Oc2ccc(-c3ccc4nccn4c3C)cc2)CC1` [Example 607, 4-[4-(5-Methylimidazo[1,2-a]pyridin-6-yl)phenoxy]-N-propoxy-piperidine-1-carboxamide] the figure was 5.00 to 6.00; with `CCONC(=O)N1CCC(Oc2ccc(-c3ccc4nccn4c3C)cc2)CC1` [Example 608, N-Ethoxy-4-[4-(5-methylimidazo[1,2-a]pyridin-6-yl)phenoxy]piperidine-1-carboxamide], 6.00 to 7.00. Take `Cc1c(-c2ccc(OC3CCN(C(=O)CN)CC3)cc2)ccc2cccnc12` [Example 609, 2-Amino-1-[4-[4-(8-methyl-7-quinolyl)phenoxy]-1-piperidyl]ethanone, 2HCl]: the negative-log IC50 (pIC50) is 7.00 to 9.00. With `Cc1c(-c2ccc(OC3CCN(C(=O)[C@@H](C)N)CC3)cc2)ccc2cccnc12` [Example 610, (2R)-2-Amino-1-[4-[4-(8-methyl-7-quinolyl)phenoxy]-1-piperidyl]propan-1-one, 2HCl], the pIC50 is 5.00 to 6.00. Turning to `CONC(=O)N1CCC(Oc2ccc(-c3ccc4nccn4c3C)cc2)CC1` [Example 611, N-Methoxy-4-[4-(5-methylimidazo[1,2-a]pyridin-6-yl)phenoxy]piperidine-1-carboxamide], the pIC50 was 5.00 to 6.00. Same read-out and setting: with `Cc1c(-c2ccc(OC3CCN(C(=O)[C@H](C)N)CC3)cc2)ccc2cccnc12` [Example 612, (2S)-2-Amino-1-[4-[4-(8-methyl-7-quinolyl)phenoxy]-1-piperidyl]propan-1-one 2HCl] the figure was 7.00 to 9.00; with `Cc1c(-c2ccc(OC3CCN(C(=O)NO)CC3)cc2)ccc2nccn12` [Example 613, 4-[4-(5-Methylimidazo[1,2-a]pyridin-6-yl)phenoxy]piperidine-1-carbohydroxamic acid], 5.00 to 6.00; with `Cc1c(-c2ccc(OC3CCN(C(=O)CN(C)C)CC3)cc2)ccc2cccnc12` [Example 614, 2-(Dimethylamino)-1-[4-[4-(8-methyl-7-quinolyl)phenoxy]-1-piperidyl]-ethanone], 5.00 to 6.00. For the molecule `Cc1c(-c2ccc(OC3CCN(C(N)=O)CC3)cc2)ccc2nccn12` [Example 615, 4-[4-(5-Methylimidazo[1,2-a]pyridin-6-yl)phenoxy]piperidine-1-carboxamide], the pIC50 was 5.00 to 6.00.

For `Cc1c(-c2ccc(OC3CCN(C(=O)[C@H]4CCCN4C)CC3)cc2)ccc2cccnc12` [Example 616, [(2R)-1-Methylpyrrolidin-2-yl]-[4-[4-(8-methyl-7-quinolyl)phenoxy]-1-piperidyl]methanone], the pIC50 was 5.00 to 6.00.

On to `Cc1c(-c2ccc(OC3CCN(C(=O)[C@@H]4CCCN4C)CC3)cc2)ccc2cccnc12` [Example 617, [(2S)-1-Methylpyrrolidin-2-yl]-[4-[4-(8-methyl-7-quinolyl)phenoxy]-1-piperidyl]methanone], for which the pIC50 was 5.00 to 6.00. Still for that read-out and setting: with `Cc1c(-c2ccc(OC3CCN(C(=O)SC(C)C)CC3)cc2)ccc2cccnc12` [Example 618, S-Isopropyl 4-[4-(8-methyl-7-quinolyl)phenoxy]piperidine-1-carbothioate] the figure was 5.00 to 6.00; with `Cc1c(-c2ccc(OC3CCN(C(=O)C(C)(C)N)CC3)cc2)ccc2cccnc12` [Example 619, 2-Amino-2-methyl-1-[4-[4-(8-methyl-7-quinolyl)phenoxy]-1-piperidyl]propan-1-one], 5.00 to 6.00; with `Cc1c(-c2ccc(OC3CCN(C(=O)[C@H]4CCCN4)CC3)cc2)ccc2cccnc12` [Example 620, [4-[4-(8-Methyl-7-quinolyl)phenoxy]-1-piperidyl]-[(2R)-pyrrolidin-2-yl]methanone], 5.00 to 6.00.

For `Cc1c(-c2ccc(OC3CCN(C(=O)[C@@H]4CCCN4)CC3)cc2)ccc2cccnc12` [Example 621, [4-[4-(8-Methyl-7-quinolyl)phenoxy]-1-piperidyl]-[(2S)-pyrrolidin-2-yl]-methanone], the pIC50 is 5.00 to 6.00. On to `CNC1(C(=O)N2CCC(Oc3ccc(-c4ccc5cccnc5c4C)cc3)CC2)CC1` [Example 622, [1-(Methylamino)cyclopropyl]-[4-[4-(8-methyl-7-quinolyl)phenoxy]-1-piperidyl]methanone], for which the pIC50 was 5.00 to 6.00. As to `Cc1c(-c2ccc(OC3CCN(C(=O)CCN)CC3)cc2)ccc2cccnc12` [Example 623, 3-Amino-1-[4-[4-(8-methyl-7-quinolyl)phenoxy]-1-piperidyl]propan-1-one, 2HCl], the pIC50 was 5.00 to 6.00. As to `Cc1c(-c2ccc(OC3CCN(C(=O)COC(C)C)CC3)cc2)ccc2cccnc12` [Example 624, 2-Isopropoxy-1-[4-[4-(8-methyl-7-quinolyl)phenoxy]-1-piperidyl]ethanone, HCl], the negative-log IC50 (pIC50) is 5.00 to 6.00. On to `CC(=O)OCC(=O)N1CCC(Oc2ccc(-c3ccc4cccnc4c3C)cc2)CC1` [Example 625, [2-[4-[4-(8-Methyl-7-quinolyl)phenoxy]-1-piperidyl]-2-oxo-ethyl]acetate], for which the pIC50 was 7.00 to 9.00. `Cc1c(-c2ccc(OC3CCN(C(=O)CO)CC3)cc2)ccc2cccnc12` [Example 626, 2-Hydroxy-1-[4-[4-(8-methyl-7-quinolyl)phenoxy]-1-piperidyl]ethanone]: the negative logarithm of the IC50 (pIC50) is 7.00 to 9.00. With `Cc1c(-c2ccc(OC3CCN(C(=O)C4(N)CCC4)CC3)cc2)ccc2cccnc12` [Example 627, (1-Aminocyclobutyl)-[4-[4-(8-methyl-7-quinolyl)phenoxy]-1-piperidyl]-methanone], the pIC50 was 5.00 to 6.00. In the case of `CCNC(=O)N1CCC(Oc2ccc(-c3ccn4ccnc4c3)cc2)CC1` [Example 628, N-Ethyl-4-(4-imidazo[1,2-a]pyridin-7-ylphenoxy)piperidine-1-carboxamide, HCl], the pIC50 was 7.00 to 9.00. Regarding `CCNC(=O)N1CCC(Oc2ccc(-c3ccn4ccnc4c3C)cc2)CC1` [Example 629, N-Ethyl-4-[4-(8-methylimidazo[1,2-a]pyridin-7-yl)phenoxy]piperidine-1-carboxamide, HCl], the pIC50 is 5.00 to 6.00. The same measure, in the same setting: with `Cc1c(-c2ccc(OC3CCN(C(=O)NOC(C)C)CC3)cc2)ccn2ccnc12` [Example 630, N-Isopropoxy-4-[4-(8-methylimidazo[1,2-a]pyridin-7-yl)phenoxy]piperidine-1-carboxamide, HCl] the figure was 6.00 to 7.00. The same measure, in the same setting: with `CCCNC(=O)N1CCC(Oc2ccc(-c3ccn4ccnc4c3C)cc2)CC1` [Example 631, 4-[4-(8-Methylimidazo[1,2-a]pyridin-7-yl)phenoxy]-N-propyl-piperidine-1-carboxamide, HCl] the figure was 7.00 to 9.00. For `Cc1c(-c2ccc(OC3CCN(C(=O)NCC(C)C)CC3)cc2)ccn2ccnc12` [Example 632, N-Isobutyl-4-[4-(8-methylimidazo[1,2-a]pyridin-7-yl)phenoxy]piperidine-1-carboxamide], the pIC50 was 7.00 to 9.00. In the case of `Cc1c(-c2ccc(OC3CCN(C(=O)NCC(C)C)CC3)cc2)ccc2ccnn12` [Example 633, N-Isobutyl-4-[4-(7-methylpyrazolo[1,5-a]pyridin-6-yl)phenoxy]piperidine-1-carboxamide], the pIC50 is 7.00 to 9.00.

Tested on in the next data set: not given
Experiment: not given
Settings: not given
In general, melting point refers to the temperature, or range, at which the solid turns liquid. Turning to `O=C(C1CC1)N1CCC(Oc2ccc(-c3cnc4ccccc4c3)cc2)CC1` (as salt: HCl) [Example 100, Cyclopropyl-[4-(4-quinolin-3-yl-phenoxy)-piperidin-1-yl]-methanone,HCl], the melting point lay in the range of 170 to 173 °C. On the same count and under the same terms, with `O=C(C1CCC1)N1CCC(Oc2ccc(-c3cnc4ccccc4c3)cc2)CC1` (as salt: HCl) [Example 101, Cyclobutyl-[4-(4-quinolin-3-yl-phenoxy)-piperidin-1-yl]-methanone,HCl] the figure was 164 to 166 °C.
